The values that follow come from ChEMBL document CHEMBL5154839, “Discovery of a selective and covalent small-molecule inhibitor of BFL-1 protein that induces robust apoptosis in cancer cells” (Eur J Med Chem, 2022).

Test [1] has as its target T1, Bromodomain-containing protein 3 (Homo sapiens, UniProt Q15059). Put plainly: Binding affinity to recombinant human BRD3 BD1 (24-144 residues) assessed as inhibition constant by fluorescence polarization assay.
The target in test [2] is Apoptosis regulator Bcl-2 (Homo sapiens, UniProt P10415). Put plainly: Displacement of fluorescein tagged BIM peptide from N-terminal His tagged human BCL-2 (1 to 170 residues) expressed in Escherichia coli BL21 (DE3) assessed as inhibition constant incubated for 1.5 hrs by fluorescence polarization-based competitive binding assay.
Apoptosis regulator Bcl-2, sequence (P10415 whole entry, the tested form may be a part): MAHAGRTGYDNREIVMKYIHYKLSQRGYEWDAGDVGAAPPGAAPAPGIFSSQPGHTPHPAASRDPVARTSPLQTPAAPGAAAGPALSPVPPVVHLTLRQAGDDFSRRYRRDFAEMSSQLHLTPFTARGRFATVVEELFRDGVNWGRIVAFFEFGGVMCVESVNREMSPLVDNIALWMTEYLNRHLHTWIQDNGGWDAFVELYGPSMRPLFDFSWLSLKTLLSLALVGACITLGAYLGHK
In test [3] the test system is U-937. In words: Induction of apoptosis in human U-937 cells assessed as late apoptotic cells at 60 uM measured after 4 hrs by Annexin PI staining based flow cytometry method (reference value: 1.62 %). Format: functional.
The subject of test [4] is U-937. Put plainly: Upregulation of BFL-1 protein expression in human U-937 cells by Western blotting analysis. Format: functional, cell-based.
The next test has as its system MV4-11. Put plainly: Upregulation of BFL-1protein expression in human MV4-11 cells by Western blotting analysis. Format: functional, cell-based.
The target in test [5] is T1, Bromodomain-containing protein 3. In words: Binding affinity to recombinant human BRD3 BD2 (306-417 residues) assessed as inhibition constant by fluorescence polarization assay.
Test [6] concerns U-937. Put plainly: Induction of apoptosis in human U-937 cells assessed as late apoptotic cells at 20 uM measured after 4 hrs by Annexin PI staining based flow cytometry method (reference value: 1.62 %). Format: functional.
The target of test [7] is Transcriptional enhancer factor TEF-3 (Homo sapiens, UniProt Q15561). Put plainly: Displacement of FAM- labeled YAP1 peptide from TEAD4 (217 to 434 residues) (unknown origin) expressed in Escherichia coli BL21 (DE3) assessed as inhibition constant incubated for 1.5 hrs by fluorescence polarization-based competitive binding assay.
Transcriptional enhancer factor TEF-3, sequence (Q15561 whole entry, the tested form may be a part): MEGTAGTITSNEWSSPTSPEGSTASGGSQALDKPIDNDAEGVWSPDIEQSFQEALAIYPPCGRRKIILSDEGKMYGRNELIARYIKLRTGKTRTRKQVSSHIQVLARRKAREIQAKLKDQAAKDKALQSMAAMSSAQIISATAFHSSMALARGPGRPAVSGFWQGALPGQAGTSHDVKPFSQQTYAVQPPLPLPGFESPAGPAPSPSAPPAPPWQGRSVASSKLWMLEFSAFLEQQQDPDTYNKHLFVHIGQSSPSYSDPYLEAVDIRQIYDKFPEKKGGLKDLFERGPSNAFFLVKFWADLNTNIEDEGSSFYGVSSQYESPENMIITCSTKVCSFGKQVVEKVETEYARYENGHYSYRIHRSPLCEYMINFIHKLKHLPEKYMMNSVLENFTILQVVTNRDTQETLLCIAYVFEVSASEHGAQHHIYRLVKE
The target in another test is T2, Bcl-2-related protein A1 (Homo sapiens, UniProt Q16548).
T2 sequence (Q16548 whole entry): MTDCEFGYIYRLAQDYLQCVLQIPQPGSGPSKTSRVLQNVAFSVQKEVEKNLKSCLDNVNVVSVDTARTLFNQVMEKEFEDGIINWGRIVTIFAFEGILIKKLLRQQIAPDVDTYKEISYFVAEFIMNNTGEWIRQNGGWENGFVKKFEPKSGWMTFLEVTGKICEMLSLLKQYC
In words: Displacement of fluorescein tagged BID BH3 peptide from His-tagged recombinant BFL-1 (1 to 151 residues) (unknown origin) expressed in Escherichia coli BL21 (DE3) assessed as inhibition constant incubated for 24 hrs by fluorescence polarization-based competitive binding assay.

The test system of test [8] is U-937. Put plainly: Induction of apoptosis in human U-937 cells overexpressing BFL-1 assessed as increase in cytochrome c level incubated for 3 hrs by immunoblotting analysis. The test is classed as functional, cell-based.
The subject of a further test is HL-60. Put plainly: Growth inhibition of human HL-60 cells incubated for 4 days by WST assay. Format: functional, cell-based. To be noted: HL-60, 96 h.
The subject of test [9] is U-937. In words: Growth inhibition of human U-937 cells incubated for 4 days by WST assay. Format: functional, cell-based. To be noted: U-937, 96 h.
Test [10] concerns U-937. In words: Induction of apoptosis in human U-937 cells assessed as assessed as increase in PARP cleavage measured after 24 hrs by Western blot analysis. Format: functional, cell-based. To be noted: DDE = dose-dependent effect.
Test [11] has as its system U-937. In words: Induction of apoptosis in human U-937 cells assessed as decrease in MCL-1 protein expression after 24 hrs by Western blot analysis. Format: functional, cell-based. To be noted: DDE = dose-dependent effect.
Another test deals with Kasumi 1. In words: Induction of apoptosis in human Kasumi 1 cells overexpressing BFL-1 assessed as increase in cytochrome c level at 5 to 40 uM incubated for 3 hrs by immunoblotting analysis. The test is classed as functional, cell-based. To be noted: dose 5-40 µM.
For another test, the system named is RPMI-8226. In words: Upregulation of BFL-1protein expression in human RPMI-8226 cells by Western blotting analysis. Format: functional, cell-based.
The test system of test [12] is U-937. Put plainly: Induction of apoptosis in human U-937 cells assessed as necrotic cells at 40 uM measured after 4 hrs by Annexin PI staining based flow cytometry method (reference value: 0.00 %). Format: functional.
In test [13] the test system is U-937. Put plainly: Induction of apoptosis in human U-937 cells assessed as necrotic cells at 10 uM measured after 4 hrs by Annexin PI staining based flow cytometry method (reference value: 0.00 %). The test is classed as functional.
Test [14] has as its system U-937. Put plainly: Induction of apoptosis in human U-937 cells assessed as increase in cytochrome c level incubated for 3 hrs by immunoblotting analysis. The test is classed as functional, cell-based.
Test [15] addresses Bcl-2-related protein A1 (Homo sapiens) (UniProt Q16548). Put plainly: Binding affinity to His-tagged recombinant BFL-1 (1 to 151 residues) (unknown origin) expressed in Escherichia coli BL21 (DE3) assessed as association constant by surface plasmon resonance analysis.
Test [16] can be described thus: Displacement of fluorescein tagged BID BH3 peptide from His-tagged recombinant BFL-1 (1 to 151 residues) C55A mutant (unknown origin) expressed in Escherichia coli BL21 (DE3) assessed as inhibition constant incubated for 24 hrs by fluorescence polarization-based competitive binding assay. Further details: species or system Homo sapiens.
For the next test, the species on record is Homo sapiens. In words: Displacement of fluorescein tagged BID BH3 peptide from His-tagged recombinant BFL-1 (1 to 151 residues) C55A mutant (unknown origin) expressed in Escherichia coli BL21 (DE3) assessed as fold decrease in inhibition constant incubated for 24 hrs by fluorescence polarization-based competitive binding assay relative to wild type.
The next test has as its system MM1.S. In words: Growth inhibition of human MM1.S cells incubated for 4 days by WST assay. The test is classed as functional, cell-based. To be noted: 96 h.

Each structure is given as a SMILES string. The source made the active and inactive calls. The rule behind the calls is not given here. A value given as a limit tells only on which side of the number the result lay.

T1 sequence (Q15059 whole entry, the tested form may be a part): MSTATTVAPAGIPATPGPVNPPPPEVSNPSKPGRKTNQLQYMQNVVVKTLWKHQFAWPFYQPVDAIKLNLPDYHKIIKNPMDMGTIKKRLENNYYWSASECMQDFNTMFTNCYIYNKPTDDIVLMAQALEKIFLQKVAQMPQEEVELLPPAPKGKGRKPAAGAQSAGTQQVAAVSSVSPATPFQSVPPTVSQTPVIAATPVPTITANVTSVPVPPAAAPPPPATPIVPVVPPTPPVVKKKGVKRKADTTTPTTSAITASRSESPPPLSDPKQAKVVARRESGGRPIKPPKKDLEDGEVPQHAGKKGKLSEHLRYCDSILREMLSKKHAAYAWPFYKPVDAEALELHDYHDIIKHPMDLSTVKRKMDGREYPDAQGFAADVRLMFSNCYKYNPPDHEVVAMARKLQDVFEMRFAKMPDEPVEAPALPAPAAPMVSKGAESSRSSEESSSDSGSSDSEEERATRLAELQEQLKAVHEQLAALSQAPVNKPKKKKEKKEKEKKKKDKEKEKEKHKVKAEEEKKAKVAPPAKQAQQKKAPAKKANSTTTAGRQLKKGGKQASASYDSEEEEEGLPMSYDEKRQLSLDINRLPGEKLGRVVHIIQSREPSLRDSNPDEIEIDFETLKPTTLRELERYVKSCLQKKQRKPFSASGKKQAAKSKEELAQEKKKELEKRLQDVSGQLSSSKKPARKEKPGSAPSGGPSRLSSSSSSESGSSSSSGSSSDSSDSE

`C=CC(=O)N1CCN(c2c3ccc(-c4cccc(F)c4)cc3nn2Cc2ccccc2)CC1`: the Ki in test [1] was above 400 µM; in test [2], above 400 µM; in test [5], above 400 µM; in [7], above 400 µM; at Bcl-2-related protein A1, 0.41 µM; in test [16] it was 8.68 µM. Besides, the Activity is 21.52% with U-937 [3]; 4.05% with U-937 [6]; “Dde” with U-937 [10]; “Dde” in the test on U-937 [11]; 7.22% in the test with U-937 [12]; 0.16% with U-937 [13]. Also, the outcome in the test with U-937 [4], with MV4-11, with U-937 [8], in the test on Kasumi 1, with RPMI-8226 and with U-937 [14] was Active. The IC50 in the test on HL-60 is 10.7 µM; with U-937 [9], 2.8 µM; in the test with MM1.S, 6.8 µM. Besides, the Ka in test [15] is 2.09 10^5/Ms. Moreover, the fold change (FC) in the test filed under Homo sapiens came to 21.
